Source: patent publication US10597388B2, “Pyridazinone herbicides” (FMC CORPORATION, priority 2014, dated 2020)

What was measured:
Test in all cases: Test D controlled growth environment herbicide test, pre- and postemergence
Type in all cases: in vivo
[1] = test system: radish, wild (wild radish, Raphanus raphanistrum)
Description: (§1) Seeds of plant species selected from bluegrass (annual bluegrass, Poa annua), blackgrass (Alopecurus myosuroides), Canada thistle (Cirsium arvense), canarygrass (Phalaris minor), chickweed (common chickweed, Stellaria media), geranium, cutleaf (cutleaf geranium, Geranium dissectum), galium (catchweed bedstraw, Galium aparine), bromegrass, downy (downy bromegrass, Bromus tectorum), field poppy (Papaver rhoeas), field violet (Viola arvensis), foxtail, green (green foxtail, Setaria viridis), deadnettle (henbit deadnettle, Lamium amplexicaule), ryegrass, Italian (Italian ryegrass, Lolium multiflorum), kochia (Kochia scoparia), lambsquarters (Chenopodium album), oilseed rape (Brassica napus), pigweed (Amaranthus retroflexus), chamomile (scentless chamomile, Matricaria inodora), Russian thistle (Salsola kali), speedwell (bird's-eye speedwell, Veronica persica), barley, spring (spring barley, Hordeum vulgare), wheat, spring (spring wheat, Triticum aestivum), buckwheat, wild (wild buckwheat, Polygonum convolvulus), mustard, wild (wild mustard, Sinapis arvensis), oat, wild (wild oat, Avena fatua), radish, wild (wild radish, Raphanus raphanistrum), windgrass (Apera spica-venti), barley, winter (winter barley, Hordeum vulgare), and wheat, winter (winter wheat, Triticum aestivum) were planted into a silt loam soil and treated preemergence with test chemicals formulated in a non-phytotoxic solvent mixture which included a surfactant.
(§2) At the same time, these species were planted in pots containing Redi-Earth® planting medium (Scotts Company, 14111 Scottslawn Road, Marysville, Ohio 43041) comprising spaghnum peat moss, vermiculite, wetting agent and starter nutrients and treated with postemergence applications of the test chemicals formulated in the same manner. Plants ranged in height from 2 to 18 cm (1- to 4-leaf stage). Treated plants and controls were maintained in a controlled growth environment for 14 to 21 d after which time all species were compared to controls and visually evaluated. Plant response ratings, summarized in Table D, are based on a scale of 0 to 100 where 0 is no effect and 100 is complete control. A dash (-) response means no test result.

[2] = test system: windgrass (Apera spica-venti)
Description: as §1, §2

[3] = test system: oilseed rape (Brassica napus)
Description: as §1, §2

[4] = test system: barley, spring (spring barley, Hordeum vulgare)
Description: as §1, §2

[5] = test system: wheat, spring (spring wheat, Triticum aestivum)
Description: as §1, §2

[6] = test system: bromegrass, downy (downy bromegrass, Bromus tectorum)
Description: as §1, §2

[7] = test system: lambsquarters (Chenopodium album)
Description: as §1, §2

[8] = test system: deadnettle (henbit deadnettle, Lamium amplexicaule)
Description: as §1, §2

[9] = test system: speedwell (bird's-eye speedwell, Veronica persica)
Description: as §1, §2

[10] = test system: chamomile (scentless chamomile, Matricaria inodora)
Description: as §1, §2

[11] = test system: mustard, wild (wild mustard, Sinapis arvensis)
Description: as §1, §2

[12] = test system: field violet (Viola arvensis)
Description: as §1, §2

[13] = test system: oat, wild (wild oat, Avena fatua)
Description: as §1, §2

[14] = Postemergence, 31 g ai/ha, scale 0 to 100 (0 no effect, 100 complete control)
[15] = Postemergence, 125 g ai/ha, visual rating on scale 0 (no effect) to 100 (complete control), 14 to 21 d
[16] = Postemergence, 250 g ai/ha, scale 0 to 100 (0 no effect, 100 complete control)
[17] = Preemergence, 62 g ai/ha, scale 0 to 100 (0 no effect, 100 complete control)
[18] = Preemergence, 125 g ai/ha, scale 0 to 100 (0 no effect, 100 complete control)
[19] = Preemergence, 250 g ai/ha, scale 0 to 100 (0 no effect, 100 complete control)
[20] = postemergence, 62 g ai/ha, scale 0 to 100, 0 no effect, 100 complete control

`CC(=O)Oc1c(C)nn(C)c(=O)c1-c1c(C)sc2ccc(C)cc12` [Compound 25] was tested, and the “Radish, Wild plant response rating” value [1, 14] was 15, the “Plant response rating, Radish, Wild” value [1, 15] was 65 and the “Plant response rating, Radish, Wild” value [1, 16] was 75. The “Plant response rating (scale of 0 to 100), Radish, Wild” value ([1]; Preemergence, 31 g ai/ha) was 0, the “Plant response rating, Radish, Wild” value [1, 17] was 0 and the “Plant response rating, Radish, Wild” value [1, 18] was 0. The “Plant response rating, Radish, Wild” value [1, 19] was 0, the “Plant response rating, Radish, Wild” value [1, 20] was 35 and the “Windgrass plant response rating” value [2, 14] was 70. For the same compound, the “Plant response rating, Windgrass” value [2, 15] was 85, the “Plant response rating, Windgrass” value [2, 16] was 85 and the “Plant response rating (scale of 0 to 100), Windgrass” value ([2]; Preemergence, 31 g ai/ha) was 75. The “Plant response rating, Windgrass” value [2, 17] was 85, the “Plant response rating, Windgrass” value [2, 18] was 100 and the “Plant response rating, Windgrass” value [2, 19] was 100. For the same compound, the “Plant response rating, Windgrass” value [2, 20] was 75, the “Oilseed Rape plant response rating” value [3, 14] was 5 and the “Plant response rating, Oilseed Rape” value [3, 15] was 45. For the same compound, the “Plant response rating, Oilseed Rape” value [3, 16] was 60, the “Plant response rating (scale of 0 to 100), Oilseed Rape” value ([3]; Preemergence, 31 g ai/ha) was 0 and the “Plant response rating, Oilseed Rape” value [3, 17] was 0. The “Plant response rating, Oilseed Rape” value [3, 18] was 0, the “Plant response rating, Oilseed Rape” value [3, 19] was 35 and the “Plant response rating, Oilseed Rape” value [3, 20] was 30. The “Plant response rating, Barley, Spring” value [4, 14] was 0, the “Plant response rating, Barley, Spring” value [4, 15] was 0 and the “Plant response rating, Barley, Spring” value [4, 16] was 10. The “Plant response rating (scale of 0 to 100), Barley, Spring” value ([4]; Preemergence, 31 g ai/ha) was 0, the “Plant response rating, Barley, Spring” value [4, 17] was 0 and the “Plant response rating, Barley, Spring” value [4, 18] was 0. The “Barley, Spring plant response rating” value [4, 19] was 0, the “Plant response rating, Barley, Spring” value [4, 20] was 0 and the “Wheat, Spring plant response rating” value [5, 14] was 0. The “Plant response rating, Wheat, Spring” value [5, 15] was 15, the “Plant response rating, Wheat, Spring” value [5, 16] was 20 and the “Plant response rating (scale of 0 to 100), Wheat, Spring” value ([5]; Preemergence, 31 g ai/ha) was 0. For the same compound, the “Plant response rating, Wheat, Spring” value [5, 17] was 0, the “Plant response rating, Wheat, Spring” value [5, 18] was 10 and the “Plant response rating, Wheat, Spring” value [5, 19] was 25. The “Plant response rating, Wheat, Spring” value [5, 20] was 0, the “Bromegrass, Downy plant response rating” value [6, 14] was 5 and the “Plant response rating, Bromegrass, Downy” value [6, 15] was 50. For the same compound, the “Plant response rating, Bromegrass, Downy” value [6, 16] was 65, the “Plant response rating (scale of 0 to 100), Bromegrass, Downy” value ([6]; Preemergence, 31 g ai/ha) was 40 and the “Plant response rating, Bromegrass, Downy” value [6, 17] was 65. For the same compound, the “Plant response rating, Bromegrass, Downy” value [6, 18] was 80, the “Plant response rating, Bromegrass, Downy” value [6, 19] was 85 and the “Plant response rating, Bromegrass, Downy” value [6, 20] was 25. For the same compound, the “Lambsquarters plant response rating” value [7, 14] was 90, the “Plant response rating, Lambsquarters” value [7, 15] was 90 and the “Plant response rating, Lambsquarters” value [7, 16] was 95. For the same compound, the “Plant response rating (scale of 0 to 100), Lambsquarters” value ([7]; Preemergence, 31 g ai/ha) was 80, the “Plant response rating, Lambsquarters” value [7, 17] was 95 and the “Plant response rating, Lambsquarters” value [7, 18] was 98. For the same compound, the “Plant response rating, Lambsquarters” value [7, 19] was 100, the “Plant response rating, Lambsquarters” value [7, 20] was 90 and the “Deadnettle plant response rating” value [8, 14] was 5. The “Plant response rating, Deadnettle” value [8, 15] was 20, the “Plant response rating, Deadnettle” value [8, 16] was 45 and the “Plant response rating (scale of 0 to 100), Deadnettle” value ([8]; Preemergence, 31 g ai/ha) was 0. The “Plant response rating, Deadnettle” value [8, 17] was 0, the “Plant response rating, Deadnettle” value [8, 18] was 0 and the “Plant response rating, Deadnettle” value [8, 19] was 50. For the same compound, the “Plant response rating, Deadnettle” value [8, 20] was 10, the “Speedwell plant response rating” value [9, 14] was 10 and the “Plant response rating, Speedwell” value [9, 15] was 25. For the same compound, the “Plant response rating, Speedwell” value [9, 16] was 80, the “Plant response rating (scale of 0 to 100), Speedwell” value ([9]; Preemergence, 31 g ai/ha) was 35 and the “Plant response rating, Speedwell” value [9, 17] was 80. The “Plant response rating, Speedwell” value [9, 18] was 95, the “Plant response rating, Speedwell” value [9, 19] was 100 and the “Plant response rating, Speedwell” value [9, 20] was 15. For the same compound, the “Chamomile plant response rating” value [10, 14] was 75, the “Plant response rating, Chamomile” value [10, 15] was 100 and the “Plant response rating, Chamomile” value [10, 16] was 100. For the same compound, the “Plant response rating (scale of 0 to 100), Chamomile” value ([10]; Preemergence, 31 g ai/ha) was 100, the “Plant response rating, Chamomile” value [10, 17] was 100 and the “Plant response rating, Chamomile” value [10, 18] was 100. The “Plant response rating, Chamomile” value [10, 19] was 95, the “Plant response rating, Chamomile” value [10, 20] was 95 and the “Mustard, Wild plant response rating” value [11, 14] was 20. For the same compound, the “Plant response rating, Mustard, Wild” value [11, 15] was 70, the “Plant response rating, Mustard, Wild” value [11, 16] was 85 and the “Plant response rating (scale of 0 to 100), Mustard, Wild” value ([11]; Preemergence, 31 g ai/ha) was 0. For the same compound, the “Plant response rating, Mustard, Wild” value [11, 17] was 0, the “Plant response rating, Mustard, Wild” value [11, 18] was 20 and the “Plant response rating, Mustard, Wild” value [11, 19] was 60. The “Plant response rating, Mustard, Wild” value [11, 20] was 40, the “Field Violet plant response rating” value [12, 14] was 65 and the “Plant response rating, Field Violet” value [12, 15] was 85. For the same compound, the “Plant response rating, Field Violet” value [12, 16] was 95, the “Plant response rating (scale of 0 to 100), Field Violet” value ([12]; Preemergence, 31 g ai/ha) was 90 and the “Plant response rating, Field Violet” value [12, 17] was 100. For the same compound, the “Plant response rating, Field Violet” value [12, 18] was 100, the “Plant response rating, Field Violet” value [12, 19] was 100 and the “Plant response rating, Field Violet” value [12, 20] was 75. The “Oat, Wild plant response rating” value [13, 14] was 75, the “Plant response rating, Oat, Wild” value [13, 15] was 90 and the “Plant response rating, Oat, Wild” value [13, 16] was 90. For the same compound, the “Plant response rating (scale of 0 to 100), Oat, Wild” value ([13]; Preemergence, 31 g ai/ha) was 85, the “Plant response rating, Oat, Wild” value [13, 17] was 90 and the “Plant response rating, Oat, Wild” value [13, 18] was 95. The “Plant response rating, Oat, Wild” value [13, 19] was 100 and the “Plant response rating, Oat, Wild” value [13, 20] was 80.
